The source of these data is patent publication US20230263792A1, “USE OF 2,3,5-SUBSTITUTED THIOPHENE COMPOUND FOR PREVENTING, ALLEVIATION, OR TREATING MASTOCYTOSIS” (PHAROS IBIO CO., LTD, priority 2020, published 2023).

By GI50 is commonly meant the concentration at which growth is held to half of that of the control. A low value points to more potent growth inhibition. The Kd is a measure of binding affinity in units of concentration. Read a high Kd as a looser complex.

The subject of experiment [1] is c-kit phosphorylation and downstream signaling (p-STAT3, p-ERK1/2) in the c-kit D816V mutant Ba/F3 cell line. Kind of experiment: Western blot of c-kit phosphorylation and downstream signaling in c-kit D816V Ba/F3. The class given is cell-based. As to conditions: 0.1, 1 and 10 μM, 2 hours, FIG. 2. As to the method:
The inhibitory activities of control compounds and PHI-101 against c-kit phosphorylation and downstream signaling (p-STAT3, p-ERK1/2) in the c-kit D816V mutant Ba/F3 cell line were measured, and as the control compounds, sunitinib and dasatinib were used.
(§1) Specifically, the c-kit D816V mutant Ba/F3 cell line was dispensed at a concentration of 1×10^6 cells/ml, treated with each of the control compounds and PHI-101 at concentrations of 0.1, 1 and 10 μM, and then cultured for 2 hours. Next, lysates of the cells were obtained using lysis buffer (50 mM Tris-HCl pH 7.5, 1% NP40, 1 mM EDTA, 150 mM NaCl, 5 mM, Na3VO4 and 2.5 mM NaF, and a protease inhibitor cocktail). Equal amounts of the cell lysates were electrophoresed using 8% SDS-PAGE gel at 100 V for 1 hour and 30 minutes, and the separated protein was electrically transferred to nitrocellulose membranes. The membranes were blocked with 5% skim milk at room temperature for 30 minutes, and allowed to react with primary antibodies (diluted 1:5,000), including p-c-kit tyrosine 719 (Y719), p-STAT3 tyrosine 705 (Y705) and p-ERK1/2 threonine 202/tyrosine 204 (T202/Y204) at 4° C. for 16 to 20 hours. […] Next, the membranes were washed three times with TBST for 5 minutes each time and treated with a chemiluminescent substrate reagent, and the expression level of the protein was measured by detecting luminescence with an X-ray film in the dark.

For experiment [2], the system named is HMC-1.2 cell line (imatinib-resistant cell line, having c-kit G560V/D816V mutation). Kind of experiment: Growth inhibition of mastocytosis cell line HMC-1.2. The class given is cell-based. As to conditions: HMC-1.2, 72 hours. The protocol: [Worded in the source for another cell line; this cell line is reported under the same test.] Specifically, 100 μl of a Ba/F3 cell line with a c-kit D816V mutation (FIG. 1) was added to each well of a 96-well plate at a concentration of 10,000 cells/100 μl. […] As the control compounds, imatinib and sunitinib which are c-kit inhibitors were used.

In experiment [3] the test system is cleaved PARP and cleaved caspase-3 in HMC-1.2 cell line. Kind of experiment: Western blot of cleaved PARP and cleaved caspase-3, HMC-1.2. Type of experiment: cell-based. As to conditions: HMC-1.2, 0.1 and 1 μM, controls 1 μM, FIG. 8. As to the method:
as §1, with “membranes.” for “membranes. The membranes were blocked with 5% skim milk at room temperature for 30 minutes, and allowed to react with primary antibodies (diluted 1:5,000), including p-c-kit tyrosine 719 (Y719), p-STAT3 tyrosine 705 (Y705) and p-ERK1/2 threonine 202/tyrosine 204 (T202/Y204) at 4° C. for 16 to 20 hours.”
A mastocytosis cell line was treated with PHI-101, and the levels of cleaved PARP and cleaved caspase-3, which are apoptosis markers, were analyzed. […]
Specifically, the apoptotic effect of PHI-101 against the HMC-1.2 cell line was analyzed in the same manner as in Example 1-2, except that the HMC-1.2 cell line was treated with each of the control compounds at a concentration of 1 μM and PHI-101 at concentrations of 0.1 and 1 μM, and that cleaved PARP and cleaved caspase-3, each diluted at 1:5,000, were used as primary antibodies.

The next experiment has as its target T1, KIT (D816V) (Homo sapiens, UniProt P10721, D816V).
T1 construct: T7 phage fusion or DNA label for qPCR detection; made in house; host or cells: T7 phage in E. coli BL21-derived host, or HEK-293 cells (both named)
Kind of experiment: Kinase binding assay (Kd, qPCR detection). The protocol:
(§2) A kinase-tagged T7 phage strain was prepared from an E. coli host derived from a BL21 strain. E. coli was grown in log-phase, infected with T7 phage, and then incubated with shaking at 32° C. until lysis. The lysates were centrifuged and filtered to remove cell debris. Thereafter, the kinase produced in HEK-293 cells was labeled with DNA for qPCR detection. Streptavidin-coated magnetic beads were treated with biotinylated small molecule ligand for 30 minutes at room temperature to produce affinity resins for kinase assay. The liganded beads were blocked with excess biotin and washed with blocking buffer (SeaBlock(Pierce), 1% BSA, 0.05% Tween 20, 1 mM DTT) to remove unbound ligand and to reduce nonspecific binding. Binding reactions were induced by combining kinase, ligand affinity beads and PHI-101 in 1× binding buffer (20% SeaBlock, 0.17× PBS, 0.05% Tween 20, 6 mM DTT). PHI-101 was prepared as a 111X stock in 100% DMSO. The binding constant (Kd) was determined using an 11-point 3-fold compound dilution series with three DMSO control points. All compounds for Kd measurements were dispensed by acoustic transfer (non-contact dispensing) in 100% DMSO. The compounds were then diluted directly into the assays such that the final concentration of DMSO was 0.9%. All reactions were performed in polypropylene 384-well plates at a final volume of 0.02 ml. The assay plates were incubated at room temperature with shaking for 1 hour and the affinity beads were washed with wash buffer (1× PBS, 0.05% Tween 20). The beads were then re-suspended in elution buffer (1× PBS, 0.05% Tween 20, 0.5 μM non-biotinylated affinity ligand) and incubated at room temperature with shaking for 30 minutes. The kinase concentration in the eluates was measured by qPCR.
(§3) 11-point 3-fold serial dilutions of each test compound were prepared in 100% DMSO at 100×final test concentration and then diluted to 1× in the assay (final DMSO concentration=1%). Most Kd values were determined using a compound top concentration=30,000 nM. If the initial Kd determined was <0.5 nM (lowest concentration tested), the measurement was repeated with a serial dilution starting at a lower top concentration.
(§4) The Kd value of c-kit protein was calculated with a standard dose-response curve (Equation 1) using the Hill equation.
(§5) The Hill Slope was set to −1. Curves were fitted using a non-linear least square fit with the Levenberg-Marquardt algorithm.
On the technique in general: Quantitative PCR measures a nucleic acid by following its amplification.

The next experiment addresses T2, KIT (V559D, T670I) (Homo sapiens, UniProt P10721, T670I/V559D).
T2 construct: T7 phage fusion or DNA label for qPCR detection; made in house; host or cells: T7 phage in E. coli BL21-derived host, or HEK-293 cells (both named)
Kind of experiment: Kinase binding assay (Kd, qPCR detection). As to the method: as §2, §3, §4, §5

The target in a further experiment is T3, KIT (V559D) (Homo sapiens, UniProt P10721, V559D).
T3 construct: T7 phage fusion or DNA label for qPCR detection; made in house; host or cells: T7 phage in E. coli BL21-derived host, or HEK-293 cells (both named)
T3 sequence (P10721 26-976 V559D): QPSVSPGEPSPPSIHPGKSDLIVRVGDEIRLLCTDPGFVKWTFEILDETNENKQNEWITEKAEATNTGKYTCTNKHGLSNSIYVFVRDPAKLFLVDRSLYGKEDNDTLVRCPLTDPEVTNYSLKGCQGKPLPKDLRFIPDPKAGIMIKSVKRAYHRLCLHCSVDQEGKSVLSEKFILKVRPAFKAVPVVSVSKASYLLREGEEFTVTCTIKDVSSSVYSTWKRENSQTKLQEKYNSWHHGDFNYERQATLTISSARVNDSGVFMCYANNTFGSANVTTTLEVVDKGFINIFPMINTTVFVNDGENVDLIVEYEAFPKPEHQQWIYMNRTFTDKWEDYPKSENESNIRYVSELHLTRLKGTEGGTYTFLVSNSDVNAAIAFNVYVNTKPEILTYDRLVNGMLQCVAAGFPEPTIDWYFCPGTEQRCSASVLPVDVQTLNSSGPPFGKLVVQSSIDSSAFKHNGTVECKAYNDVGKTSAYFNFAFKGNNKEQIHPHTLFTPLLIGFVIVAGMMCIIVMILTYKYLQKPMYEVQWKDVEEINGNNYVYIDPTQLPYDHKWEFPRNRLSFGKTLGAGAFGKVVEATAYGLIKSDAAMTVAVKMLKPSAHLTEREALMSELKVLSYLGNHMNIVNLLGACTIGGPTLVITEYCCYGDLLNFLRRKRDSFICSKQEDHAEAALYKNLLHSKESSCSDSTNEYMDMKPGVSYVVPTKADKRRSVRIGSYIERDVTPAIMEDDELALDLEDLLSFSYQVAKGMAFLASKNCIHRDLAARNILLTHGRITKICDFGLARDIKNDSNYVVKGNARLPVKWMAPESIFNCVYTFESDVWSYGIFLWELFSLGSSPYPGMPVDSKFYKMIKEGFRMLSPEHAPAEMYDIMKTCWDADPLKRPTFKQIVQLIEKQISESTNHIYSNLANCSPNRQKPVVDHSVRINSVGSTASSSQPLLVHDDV
Kind of experiment: Kinase binding assay (Kd, qPCR detection). As to the method: as §2, §3, §4, §5

A further experiment deals with T4, KIT (D816H) (Homo sapiens, UniProt P10721, D816H).
T4 construct: T7 phage fusion or DNA label for qPCR detection; made in house; host or cells: T7 phage in E. coli BL21-derived host, or HEK-293 cells (both named)
T4 sequence (P10721 26-976 D816H): as the sequence (P10721 26-976 V559D) above, with D534V, D791H counted along it
Kind of experiment: Kinase binding assay (Kd, qPCR detection). The protocol:
as §2, §3, §4, §5

The next experiment concerns the target T5, KIT (V559D, V654A) (Homo sapiens, UniProt P10721, V559D/V654A).
T5 construct: T7 phage fusion or DNA label for qPCR detection; made in house; host or cells: T7 phage in E. coli BL21-derived host, or HEK-293 cells (both named)
Kind of experiment: Kinase binding assay (Kd, qPCR detection). As to the method: as §2, §3, §4, §5

In the next experiment the target is T6, KIT (L576P) (Homo sapiens, UniProt P10721, L576P).
T6 construct: T7 phage fusion or DNA label for qPCR detection; made in house; host or cells: T7 phage in E. coli BL21-derived host, or HEK-293 cells (both named)
T6 sequence (P10721 26-976 L576P): as the sequence (P10721 26-976 V559D) above, with D534V, L551P counted along it
Kind of experiment: Kinase binding assay (Kd, qPCR detection). As to the method:
as §2, §3, §4, §5

For the next experiment, the target named is T7, KIT (A829P) (Homo sapiens, UniProt P10721, A829P).
T7 construct: T7 phage fusion or DNA label for qPCR detection; made in house; host or cells: T7 phage in E. coli BL21-derived host, or HEK-293 cells (both named)
T7 sequence (P10721 26-976 A829P): as the sequence (P10721 26-976 V559D) above, with D534V, A804P counted along it
Kind of experiment: Kinase binding assay (Kd, qPCR detection). As to the method:
as §2, §3, §4, §5

T1 sequence (P10721 26-976 D816V): as the sequence (P10721 26-976 V559D) above, with D534V, D791V counted along it
T5 sequence (P10721 26-976 V559D/V654A): as the sequence (P10721 26-976 V559D) above, with V629A counted along it
T2 sequence (P10721 26-976 V559D/T670I): as the sequence (P10721 26-976 V559D) above, with T645I counted along it

Regarding `NC(=O)Nc1cc(C#Cc2cccc(F)c2)sc1C(=O)N[C@H]1CCCNC1` [PHI-101], the “inhibitory activity against p-c-kit (Y719) phosphorylation” value in experiment [1] was “higher inhibitory activity against p-c-kit (Y719) phosphorylation than the control compounds”. In experiment [2], this molecule had a GI50 of 33 nM. The “levels of cleaved PARP and cleaved caspase-3” value in experiment [3] is “higher than those in the HMC-1.2 cell lines treated with the control compounds”. Also, the Kd is 2.1 nM on KIT (D816V); 27 nM on KIT (V559D, T670I); 16 nM at KIT (V559D); 4.8 nM on KIT (D816H); 26 nM on KIT (V559D, V654A); 39 nM at KIT (L576P). In addition, on KIT (A829P), binding was characterised by a dissociation constant (Kd) of 1.3 nM.
